# Source: ChEMBL document CHEMBL2069304, “Indole alkaloids from two cultured cyanobacteria, Westiellopsis sp. and Fischerella muscicola” (Bioorg Med Chem, 2012)
# Activity calls are given as the source filed them. The rule behind the calls is not given here.
# Legend:
# Escherichia coli = assay: Antimicrobial activity against Escherichia coli by broth microdilution assay; assay type: functional
# [1] = tested on: Mycolicibacterium smegmatis; assay: Antimicrobial activity against Mycobacterium smegmatis by broth microdilution assay; assay type: functional
# Candida albicans = assay: Antimicrobial activity against Candida albicans by broth microdilution assay; assay type: functional
# Staphylococcus aureus = assay: Antimicrobial activity against Staphylococcus aureus by broth microdilution assay; assay type: functional
# Acinetobacter baumannii = assay: Antimicrobial activity against Acinetobacter baumannii by broth microdilution assay; assay type: functional
# Vero = assay: Cytotoxicity against african green monkey Vero cells by CellTiter 96 aqueous nonradioactive cell proliferation assay; assay type: cell-based; conditions: Chlorocebus sabaeus
# [2] = tested on: Mycobacterium tuberculosis; assay: microbe, parasite or virus in culture; conditions: H37Rv
# Description: Antimicrobial activity against Mycobacterium tuberculosis H37Rv by microplate Alamar blue assay
# MCF7 = assay: Cytotoxicity against human MCF7 cells incubated for 3 days by SRB assay; assay type: functional, cell-based; conditions: MCF7, 72 h
# NCI-H460 = assay: Cytotoxicity against human NCI-H460 cells incubated for 3 days by SRB assay; assay type: functional, cell-based; conditions: NCI-H460, 72 h
# SF-268 = assay: Cytotoxicity against human SF268 cells incubated for 3 days by SRB assay; assay type: functional, cell-based; conditions: SF-268, 72 h
# IMR-90 = assay: Cytotoxicity against human IMR90 cells incubated for 3 days by SRB assay; assay type: cell-based; conditions: IMR-90, 72 h
# Homo sapiens = species on record: Homo sapiens; assay: Inhibition of 20S proteasome at 25 ug/ml
# HT-29 = assay: Cytotoxicity against human HT-29 cells by CellTiter 96 Aqueous One solution cell proliferation assay; assay type: functional, cell-based
# [3] = Homo sapiens, HT-29, read-out: IC50
Molecule,MIC (Escherichia coli),MIC [1],MIC (Candida albicans),MIC (Staphylococcus aureus),MIC (Acinetobacter baumannii),IC50 (Vero),MIC [2],IC50 (MCF7),IC50 (NCI-H460),IC50 (SF-268),IC50 (IMR-90),inhibition (Homo sapiens),IC50 (HT-29; [3]),IC50 (HT-29; ht-29)
GENTAMICIN,2.3 µM,,,,,,,,,,,,,
[C-]#[N+]C1=C2c3c[nH]c4cccc(c34)C(C)(C)[C@H]2CC[C@]1(C)C=C (relative stereo),> 100 µM,> 100 µM,> 100 µM,> 100 µM,> 100 µM,> 100 µM,> 100 µM,,,,,,,
[C-]#[N+][C@@H]1[C@H](c2c[nH]c3ccccc23)[C@@H](C(=C)C)CC[C@]1(C)C=C [HAPALINDOLE C],,,,,,,,> 100 µM,53.7 µM,88.6 µM,> 100 µM,inactive,,
[C-]#[N+][C@@H]1C2=C3C(=O)Nc4cccc(c43)C(C)(C)[C@H]2C[C@@H](Cl)[C@]1(C)C=C [ANHYDROHAPALOXINDOLE A],> 100 µM,> 100 µM,1.9 µM,27.3 µM,> 100 µM,,16.2 µM,56.7 µM,18.7 µM,26 µM,80.1 µM,,,
CC[C@@]1(O)C(=O)OCc2c1cc1n(c2=O)Cc2cc3ccccc3nc2-1 [CAMPTOTHECIN],,,,,,,,0.08 µM,0.002 µM,0.07 µM,0.43 µM,,,
[C-]#[N+][C@H]1C(=C)[C@@H](C=C)C[C@@H]2[C@@H]1c1c[nH]c3cccc(c13)C2(C)C (relative stereo),> 100 µM,78.8 µM,2.5 µM,9.1 µM,> 100 µM,,2.5 µM,35.4 µM,23 µM,23.5 µM,113 µM,,24.8 µM,
[C-]#[N+][C@@H]1[C@H]2c3c([nH]c4ccccc34)C(C)(C)[C@H]2C[C@@H](Cl)[C@@]1(C)C=C [FISCHERINDOLE L],> 100 µM,63 µM,1.2 µM,6.4 µM,> 100 µM,< 9.2 µM,22 µM,28.3 µM,15.1 µM,17.4 µM,46.3 µM,,,
CO[C@H]1/C=C/O[C@@]2(C)Oc3c(C)c(O)c4c(O)c(c(/C=N/N5CCN(C)CC5)c(O)c4c3C2=O)NC(=O)/C(C)=C\C=C\[C@H](C)[C@H](O)[C@@H](C)[C@@H](O)[C@@H](C)[C@H](OC(C)=O)[C@@H]1C [RIFAMPIN],,,,,,,0.24 µM,,,,,,,
[C-]#[N+][C@@H]1[C@H]2c3c[nH]c4cccc(c34)C(C)(C)[C@H]2C[C@@H](Cl)[C@]1(C)C=C [HAPALINDOLE A],8 µM,18.2 µM,1.2 µM,3.9 µM,> 100 µM,25.6 µM,< 0.6 µM,30.7 µM,17 µM,16.3 µM,39.1 µM,,,
CN[C@@H]1[C@H](O[C@H]2[C@H](O[C@H]3[C@H](O)[C@@H](O)[C@H](N=C(N)N)[C@@H](O)[C@@H]3N=C(N)N)O[C@@H](C)[C@]2(O)C=O)O[C@@H](CO)[C@H](O)[C@H]1O [STREPTOMYCIN],,0.41 µM,,,,,,,,,,,,
C=C[C@]1(C)CC2C(=O)c3c(NC=O)cccc3C(C)(C)[C@H]2C[C@H]1O (relative stereo),> 100 µM,> 100 µM,> 100 µM,> 100 µM,> 100 µM,> 100 µM,> 100 µM,> 100 µM,> 100 µM,> 100 µM,> 100 µM,,,Not Active
[C-]#[N+]C1=C2c3c[nH]c4cccc(c34)C(C)(C)[C@H]2C[C@@H](Cl)[C@]1(C)C=C [HAPALINDOLE I],> 100 µM,> 100 µM,> 100 µM,> 100 µM,> 100 µM,> 100 µM,2 µM,> 100 µM,68.5 µM,93.1 µM,> 100 µM,,,Not Active
C[C@@H]1[C@H](O)[C@@H](C)/C=C/C=C/C=C/C=C/C=C/C=C/C=C/[C@H](O[C@@H]2O[C@H](C)[C@@H](O)[C@H](N)[C@@H]2O)C[C@@H]2O[C@](O)(C[C@@H](O)C[C@@H](O)[C@H](O)CC[C@@H](O)C[C@@H](O)CC(=O)O[C@H]1C)C[C@H](O)[C@H]2C(=O)O [AMPHOTERICIN B],,,0.12 µM,,,,,,,,,,,
CCCCCC#CC#C/C=C/CCCC[C@H]1C[C@@H](C)C(=O)N1 [FISCHERELLIN B],> 100 µM,> 100 µM,> 100 µM,> 100 µM,> 100 µM,> 100 µM,23 µM,,,,,,,
CC1(C)S[C@@H]2[C@H](NC(=O)[C@H](N)c3ccccc3)C(=O)N2[C@H]1C(=O)O [AMPICILLIN],,,,1.54 µM,,,,,,,,,,
[C-]#[N+][C@@H]1[C@@H]2c3c[nH]c4cccc(c34)C(C)(C)[C@H]2CC[C@]1(C)C=C [HAPALINDOLE U],,,,,,,,> 100 µM,> 100 µM,> 100 µM,> 100 µM,,52.6 µM,
[C-]#[N+][C@@H]1[C@H]2c3c[nH]c4cccc(c34)C(C)(C)[C@@H]2CC[C@]1(C)C=C [HAPALINDOLE H],,,,,,,,16.3 µM,8.5 µM,10.6 µM,31.9 µM,,,
[C-]#[N+][C@@H]1[C@H]2c3c[nH]c4cccc(c34)C(C)(C)[C@H]2CC[C@]1(C)C=C [HAPALINDOLE J],> 100 µM,39 µM,0.7 µM,8.4 µM,> 100 µM,,4.3 µM,43.7 µM,12 µM,16.9 µM,39.1 µM,,28.6 µM,
C[C@H]1c2cccc(O)c2C(=O)C2=C(O)[C@]3(O)C(=O)C(C(N)=O)=C(O)[C@@H](N(C)C)[C@@H]3[C@@H](O)[C@@H]21 [DOXYCYCLINE],,,,,0.35 µM,,,,,,,,,
